Measurements published in publication PMC9386913 (Arthritis Research & Therapy, 2022).

Tests used:
LPS-induced TNF = tested on: LPS-induced TNF; set-up: method as in PMID 29549113; conditions: mouse model of NOMID, up to 4 weeks after dosing; cited from earlier work
TNF = tested on: TNF; set-up: method as in PMID 26904383; conditions: similar assay and clinical study design; no reference printed, BCT197 paper is ref 53; cited from earlier work
THP-1 cells = assay: In vitro tachyphylaxis model: daily treatment of THP-1 cells, LPS-stimulated TNF; conditions: up to 14 days, 0.1 or 1 μM CC-99677 or 1 μM p38 inhibitors
[1] = tested on: c-Jun N-terminal kinase (JNK); conditions: THP-1 cells, macrophages, and synoviocytes; cited from earlier work

SMILES: Cc1cnc(-c2ccnc(C(C)(C)O)n2)cc1-n1c(C)cc(OCc2ncc(F)cc2F)c(Cl)c1=O [ATI-450]
- Inhibition of LPS-induced TNF (LPS-induced TNF): showed inhibition of LPS-induced TNF for up to 4 weeks after dosing

SMILES: Cc1ccc(C(=O)NC2CC2)cc1-n1ncc(C(=O)c2cccc(C#N)c2)c1N [BCT197]
- Sustained TNF inhibition over treatment period (TNF): loss of effect

SMILES: Cc1ccc(-n2nc(C(C)(C)C)cc2NC(=O)Nc2ccc(OCCN3CCOCC3)c3ccccc23)cc1 [BIRB-796]
- LPS-stimulated TNF production under continued daily treatment (THP-1 cells): beginning on day 9, loss of TNF inhibitory effect

SMILES: CCCNC(=O)c1cn2ncnc(Nc3cc(C(=O)NC4CC4)ccc3C)c2c1C [BMS-582949]
- LPS-stimulated TNF production under continued daily treatment (THP-1 cells): beginning on day 9, loss of TNF inhibitory effect

SMILES: O=C(CO)N1CCC(c2[nH]nc(-c3ccc(Cl)cc3)c2-c2ccncn2)CC1 [CDD-111]
- Inhibition of LPS-induced TNF (LPS-induced TNF): did not

SMILES: C[S+]([O-])c1ccc(-c2nc(-c3ccncc3)c(-c3ccc(F)cc3)[nH]2)cc1 (centres unmarked) [SB203580]
- Activation of c-Jun N-terminal kinase (JNK) upon treatment [1]: activation of c-Jun N-terminal kinase (JNK)

SMILES: C[C@@H]1CN(Cc2ccc(F)cc2)[C@@H](C)CN1C(=O)c1cc2c(C(=O)C(=O)N(C)C)cn(C)c2cc1Cl [SCIO-469]
- LPS-stimulated TNF production under continued daily treatment (THP-1 cells): beginning on day 9, loss of TNF inhibitory effect

SMILES: O=c1ncn2nc(Sc3ccc(F)cc3F)ccc2c1-c1c(Cl)cccc1Cl [VX-745]
- Activation of c-Jun N-terminal kinase (JNK) upon treatment [1]: activation of c-Jun N-terminal kinase (JNK)
